# Laboratory results taken from patent US20150250925A1, “[…] TISSUE, […] MODEL AND MANUFACTURING METHOD THEREFOR” (priority 2012, published 2015).
# How the values were obtained:
# Assay type in all cases: cell-based, human
# [1] = system: dermal tissue layer including dendritic cells; test: Immune response evaluation: IL-6 ELISA after LPS addition, dermal tissue layer including dendritic cells; conditions: 24 hours, FIG. 3
# Procedure: (§1) A dermal tissue layer including dendritic cells was prepared in the same manner as Example 1. The culture medium of the dermal tissue layer was changed to DMEM containing 10% FBS (the inside of the insert: 30 μl, the outside of the insert: 1 ml). Lipopolysaccharide (LPS, produced by Sigma-Aldrich Co. LLC.) was added to the inside of the insert and incubated for 24 hours. Then, all the culture medium in the outside of the insert was collected, and interleukin (IL)-6 was quantified by enzyme-linked immunosorbent assay (ELISA (R & D, D6056)). The concentration of the lipopolysaccharide was 0, 1, 10, 100, or 1000 ng/ml.
# (§2) FIG. 3 is an example of a graph showing the relationship between the amount of LPS added and the amount of IL-6 produced from the dermal tissue layer.
# [2] = system: dermal tissue layer (without dendritic cells); test: Immune response evaluation: IL-6 ELISA after LPS addition, dermal tissue layer without dendritic cells; conditions: LPS 0, 1, 10, 100 or 1000 ng/ml, 24 hours; layer does not include dendritic cells; FIG. 3
# Procedure: as §1
# A dermal tissue layer (without dendritic cells) was prepared in the same manner as Example 1 except that “only the NHDF coated cells” were used instead of “a mixture of the NHDF coated cells and the MoDC coated cells”. Using the dermal tissue layer, an immune response was evaluated in the same manner as described above.
# as §2
# [3] = system: dermal tissue layer with NHDF, NHDMEC and MoDC; test: CLSM observation of dermal tissue layer of Reference Example 2 after LPS addition; conditions: 1 μg/ml LPS, 30 hours after addition; FIG. 5
# Procedure: NHDF coated cells were seeded and cultured so that the NHDF were arranged in 4 layers. Then, NHDMEC (human dermal microvascular endothelial cells) coated cells were seeded and cultured on top of the NHDF layers so that the NHDMEC were arranged in 1 layer. Moreover, NHDF coated cells were seeded and cultured on the NHDMEC layer so that the NHDF were arranged in 4 layers. These layered cells were cultured in 2.3 ml of DMEM containing 10% FBS for 3 days. Subsequently, 5×10^4 MoDC were seeded and cultured in 2.3 ml of DMEM containing 10% FBS for 1 day. Thus, a dermal tissue layer was formed. The dermal tissue layer was placed in the insert, to which 1 μg/ml LPS was added. The dermal tissue layer was observed by a confocal laser scanning microscope for 30 hours.
# FIG. 5 is an example of a confocal laser scanning microscope (CLSM) image taken 30 hours after the addition of the LPS. […] Although the details of this are not clear, it is known that the dendritic cells are transferred to the lymphatic vessels when they are activated by an antigen in a living body. […] Moreover, it has been reported that, in a living body, a CC chemokine receptor 7 is expressed in the activated dendritic cells, while CC chemokine ligands 21, 19, which are ligands of the CC chemokine receptor 7, are produced in the lymphatic vessels. […]
# [4] = system: artificial skin model including the epidermal layer; test: Immune response evaluation: IL-6 ELISA after LPS addition, artificial skin model of Example 4; conditions: LPS 0-1000 ng/ml, 24 hours, FIG. 4
# Procedure: as §1
# First, a dermal tissue layer was prepared in the same manner as Example 1 and immersed in a 50 mM Tris-HCl solution (pH=7.4) containing collagen IV for 20 minutes, so that the dermal tissue layer was coated with collagen W Then, 1.8×10^5 KC were seeded and cultured in an adherent culture medium for 2 days. Subsequently, the KC were exposed to the air-liquid interface of a keratinized medium (multi-layered medium) for 7 days to induce differentiation, and thus an artificial skin model was prepared.
# Using the artificial skin model, an immune response was evaluated in the same manner as Reference Example 1. […] FIG. 4 is an example of a graph showing the relationship between the amount of LPS added and the amount of IL-6 produced from the dermal tissue layer. […]
substance,measurement,setting,value
Lipopolysaccharide [LPS],amount of IL-6 produced from the dermal tissue layer,"[1]; LPS 0, 1, 10, 100 or 1000 ng/ml, layer includes dendritic cells",increases with an increase in the amount of LPS added
same,"amount of IL-6 produced, layer with dendritic cells compared to layer without",[1]; LPS 0-1000 ng/ml,increases significantly
same,amount of IL-6 produced from the dermal tissue layer,[2],increases with an increase in the amount of LPS added
same,overlap between dendritic cells and NHDMEC (CLSM image),[3],state of overlap between the dendritic cells and the NHDMEC after the addition of the LPS is observed
same,amount of IL-6 produced,[4],does not change with the amount of LPS added
